Data on twelve compounds can be found in paper PMC5421785, “Citrullination only infrequently impacts peptide binding to HLA class II MHC” (PLoS ONE, 2017).

One experiment has as its target T1, HLA-DRB1*01:01 (Homo sapiens, UniProt P01903+P01911, A100R/D57E/F55L/F60I/F76Y/I96L/L162R/M171V/P40L/Q125E/R42F/V115G/Y59C).
T1 construct: EBV transformed homozygous cell lines were used as sources of MHC molecules; endogenous in cells; host or cells: EBV transformed homozygous cell lines
Nature of the experiment: HLA class II peptide binding, inhibition of radiolabeled peptide binding to purified MHC. The conditions noted are these: for DRB1*01:01 binding capacity, WT/cit ratio: ratio of WT IC50 to Cit IC50, >1 = citrullination increases binding.

A further experiment concerns the target T2, HLA-DRB1*04:01 (Homo sapiens, UniProt P01903+P01911, A100K/A169T/F76Y/I96L/K127E/L162R/M171V/N62H/P40V/Q125Y/R42H/S133A/S149N/S66Y/V115G/V209L/W38E).
T2 construct: EBV transformed homozygous cell lines were used as sources of MHC molecules; endogenous in cells; host or cells: EBV transformed homozygous cell lines
The description is as above. The following applies: for DRB1*04:01 binding capacity, WT/cit ratio: ratio of WT IC50 to Cit IC50, >1 = citrullination increases binding.

The mark [1] stands for this setting: read-out: DRB1*01:01 binding capacity, WT peptide (IC50 nM).
Where [2] appears, read: read-out: DRB1*04:01 binding capacity, WT peptide (IC50 nM).
The mark [3] stands for this setting: citrullinated 15-mer peptide (X = citrulline), purified HLA-DRB1*01:01, read-out: DRB1*01:01 binding capacity, Cit peptide (IC50 nM).
Where [4] appears, read: citrullinated 15-mer peptide (X = citrulline), purified HLA-DRB1*04:01, read-out: DRB1*04:01 binding capacity, Cit peptide (IC50 nM).
Setting [5] is: wild-type (unmodified Arg) 15-mer peptide, purified HLA-DRB1*01:01, read-out: DRB1*01:01 binding capacity, WT peptide (IC50 nM).
Setting [6] is: wild-type (unmodified Arg) 15-mer peptide, purified HLA-DRB1*04:01, read-out: DRB1*04:01 binding capacity, WT peptide (IC50 nM).

Read-outs that look alike come from different tables or passages of the source. Square brackets hold non-standard residues; d marks the D form. Ends that are not written are not given here. Peptide text beside a SMILES is read from it. Cit = NC(=O)NCCC[C@H](N)C(=O)O

As usually defined, the IC50 is the concentration that inhibits the measured activity by half. For IDVDVSKPDLTAALR [Vimentin 256 WT], the IC50 at HLA-DRB1*01:01 (setting [1]) turned out to be 1490 nM; at HLA-DRB1*04:01 (setting [2]), 21400 nM.

With `CC(C)C[C@H](NC(=O)[C@H](CO)NC(=O)[C@H](CCC(N)=O)NC(=O)[C@@H](NC(=O)[C@H](CCC(N)=O)NC(=O)[C@H](CCCNC(=N)N)NC(=O)[C@H](CCCNC(N)=O)NC(=O)[C@H](Cc1ccc(O)cc1)NC(=O)[C@H](CCC(=O)O)NC(=O)[C@@H](NC(=O)[C@@H](N)CO)[C@@H](C)O)C(C)C)C(=O)N[C@H](C(=O)N[C@@H](CS)C(=O)N[C@@H](CCC(=O)O)C(=O)N[C@H](C(=O)O)C(C)C)[C@@H](C)O` [STEYXRQVQSLTCEV] (H-STEY[Cit]RQVQSLTCEV-OH), the IC50 turned out to be 97 nM at HLA-DRB1*01:01 (setting [3]) and 1510 nM at HLA-DRB1*04:01 (setting [4]).

On to AINTEFKNTRTNEKV [Vimentin 91 WT], for which the figures for the half-maximal inhibitory concentration (IC50) at HLA-DRB1*01:01 (setting [1]) and at HLA-DRB1*04:01 (setting [2]) were 1330 nM and 1340 nM, respectively.

For `CSCC[C@H](NC(=O)[C@@H]1CCCN1C(=O)CNC(=O)[C@@H]1CCCN1C(=O)[C@H](CO)NC(=O)CNC(=O)[C@H](CC(N)=O)NC(=O)[C@@H](N)CCC(=O)O)C(=O)NCC(=O)N1CCC[C@H]1C(=O)N[C@@H](CCCNC(N)=O)C(=O)NCC(=O)N[C@@H](CC(C)C)C(=O)N1CCC[C@H]1C(=O)NCC(=O)O` [ENGSPGPMGPXGLPG] (H-ENGSPGPMGP[Cit]GLPG-OH), the IC50 is 31400 nM on HLA-DRB1*01:01 (setting [3]) and greater than 40000 nM on HLA-DRB1*04:01 (setting [4]).

For TVETRDGQVINETSQ [Vimentin 446 WT], the IC50 on HLA-DRB1*01:01 (setting [1]) was 17900 nM; at HLA-DRB1*04:01 (setting [2]), 9590 nM.

Turning to `CSCC[C@H](NC(=O)[C@H](CCC(=O)O)NC(=O)[C@H](CCC(=O)O)NC(=O)[C@H](CCCCN)NC(=O)[C@H](CCSC)NC(=O)[C@@H](N)CC(N)=O)C(=O)N[C@@H](C)C(=O)N[C@@H](CCCNC(=N)N)C(=O)N[C@@H](Cc1c[nH]cn1)C(=O)N[C@@H](CC(C)C)C(=O)N[C@@H](CCCNC(N)=O)C(=O)N[C@@H](CCC(=O)O)C(=O)N[C@@H](Cc1ccc(O)cc1)C(=O)N[C@@H](CCC(N)=O)C(=O)N[C@@H](CC(=O)O)C(=O)O` [NMKEEMARHLXEYQD], the IC50 was 5060 nM at HLA-DRB1*01:01 (setting [3]) and greater than 40000 nM at HLA-DRB1*04:01 (setting [4]).

Take TLLIKTVETRDGQVI [Vimentin 441 WT]: the IC50 came out at 826 nM on HLA-DRB1*01:01 (setting [5]) and 6020 nM at HLA-DRB1*04:01 (setting [6]).

As for `C[C@H](NC(=O)CNC(=O)[C@H](CCCCN)NC(=O)[C@@H]1CCCN1C(=O)CNC(=O)[C@@H](N)CC(=O)O)C(=O)N[C@@H](CCCNC(N)=O)C(=O)NCC(=O)N[C@@H](CC(=O)O)C(=O)N[C@@H](CO)C(=O)NCC(=O)N1CCC[C@H]1C(=O)N1CCC[C@H]1C(=O)NCC(=O)N[C@@H](CCCNC(=N)N)C(=O)O` [DGPKGAXGDSGPPGR] (H-DGPKGA[Cit]GDSGPPGR-OH; N-terminus and C-terminus assumed), the IC50 at HLA-DRB1*01:01 (setting [3]) and on HLA-DRB1*04:01 (setting [4]) was greater than 40000 nM throughout. In addition, the “DRB1*01:01 binding capacity, WT/cit ratio” value on HLA-DRB1*01:01 is 0.533. Further, on HLA-DRB1*04:01, the “DRB1*04:01 binding capacity, WT/cit ratio” value amounted to 0.548.

Take `CC(C)[C@H](NC(=O)[C@H](CC(=O)O)NC(=O)[C@H](CCCCN)NC(=O)[C@H](CC(=O)O)NC(=O)[C@H](CC(N)=O)NC(=O)[C@H](Cc1ccc(O)cc1)NC(=O)[C@H](CCCNC(N)=O)NC(=O)[C@H](CCC(N)=O)NC(=O)CNC(=O)[C@H](CC(=O)O)NC(=O)[C@@H](N)CCC(N)=O)C(=O)N[C@@H](Cc1c[nH]c2ccccc12)C(=O)N[C@@H](CCCCN)C(=O)N1CCC[C@H]1C(=O)N[C@@H](CCC(=O)O)C(=O)O` [QDGQXYNDKDVWKPE] (H-QDGQ[Cit]YNDKDVWKPE-OH; N-terminus and C-terminus assumed): the IC50 on HLA-DRB1*01:01 (setting [3]) and at HLA-DRB1*04:01 (setting [4]) was greater than 40000 nM in each case. At HLA-DRB1*01:01, the “DRB1*01:01 binding capacity, WT/cit ratio” value is 1.0. Also, the “DRB1*04:01 binding capacity, WT/cit ratio” value on HLA-DRB1*04:01 is reported as 1.0.

With `CC(C)C[C@H](NC(=O)[C@H](CO)NC(=O)[C@H](CCCNC(N)=O)NC(=O)[C@H](CO)NC(=O)[C@@H](NC(=O)[C@H](CO)NC(=O)[C@@H]1CCCN1)[C@@H](C)O)C(=O)N[C@@H](Cc1ccc(O)cc1)C(=O)N[C@@H](C)C(=O)N[C@@H](CO)C(=O)N[C@@H](CO)C(=O)N1CCC[C@H]1C(=O)NCC(=O)NCC(=O)N[C@H](C(=O)O)C(C)C` [PSTSXSLYASSPGGV], the IC50 at HLA-DRB1*01:01 (citrullinated 15-mer (X), purified MHC, inhibition of radiolabeled peptide binding, dash = IC50 >40,000 nM, read-out: DRB1*01:01 binding capacity, Cit peptide (IC50 nM)) was 524 nM; at HLA-DRB1*04:01 (citrullinated 15-mer (X), purified MHC, inhibition of radiolabeled peptide binding, dash = IC50 >40,000 nM, read-out: DRB1*04:01 binding capacity, Cit peptide (IC50 nM)), 2520 nM.

Consider QDGQRYNDKDVWKPE [Collagen 36 WT], for which the IC50 on HLA-DRB1*01:01 (setting [5]) and at HLA-DRB1*04:01 (setting [6]) was greater than 40000 nM throughout.

As to `CC(C)C[C@H](NC(=O)CNC(=O)[C@H](CCCNC(=N)N)NC(=O)[C@@H](N)CCC(=O)O)C(=O)N[C@@H](CCCCN)C(=O)NCC(=O)N[C@@H](Cc1c[nH]cn1)C(=O)N[C@@H](CCCNC(N)=O)C(=O)NCC(=O)N[C@@H](Cc1ccccc1)C(=O)N[C@H](C(=O)NCC(=O)N[C@@H](CC(C)C)C(=O)N[C@@H](CCC(N)=O)C(=O)NCC(=O)O)[C@@H](C)O` [ERGLKGHXGFTGLQG] (H-ERGLKGH[Cit]GFTGLQG-OH), the IC50 on HLA-DRB1*01:01 (setting [3]) was 28 nM.
